Laboratory results published in PubChem BioAssay (NCI).
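The compound was tested at five concentrations on cells cultured in 96-well plates, with a 48-hour exposure period. The concentration for 50% growth inhibition is given as GI50. TGI: total growth inhibition.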

Columns and labels:
Experiment in all cases: inhibition of tumour cell growth, NCI panel, 48 h
[1] = test system: SNB-75 CNS
[2] = test system: SK-MEL-28 melanoma
[3] = test system: LXFL 529 NSCLC
[4] = test system: SNB-78 CNS
[5] = test system: OVCAR-8 ovarian
[6] = test system: UO-31 renal
[7] = test system: U251 CNS
[8] = test system: RPMI-8226 leukemia
[9] = test system: MOLT-4 leukemia
[10] = test system: SNB-19 CNS
[11] = test system: NCI-H460 lung
[12] = test system: KM12 colon
[13] = test system: M19-MEL melanoma
[14] = test system: HOP-62 NSCLC
[15] = test system: LOX IMVI melanoma
[16] = test system: DMS 273 small cell lung
[17] = test system: 786-0 renal
[18] = test system: NCI-H522 lung
[19] = test system: DMS 114 small cell lung
[20] = test system: SK-MEL-5 melanoma
[21] = test system: SW-620 colon
[22] = test system: HCC-2998 colon
[23] = test system: CAKI-1 renal
[24] = test system: HOP-92 NSCLC
[25] = test system: HL-60(TB) leukemia
[26] = test system: M14 melanoma
[27] = test system: UACC-257 melanoma
[28] = test system: SF-539 CNS
[29] = test system: HT29 colon
[30] = test system: RXF 393 renal
[31] = test system: SK-MEL-2 melanoma
[32] = test system: DLD-1 colon
[33] = test system: K-562 leukemia
[34] = test system: MALME-3M melanoma
[35] = test system: CCRF-CEM leukemia
[36] = test system: TK-10 renal
[37] = test system: OVCAR-4 ovarian
[38] = test system: UACC-62 melanoma
[39] = test system: SF-295 CNS
[40] = test system: SF-268 CNS
[41] = test system: SK-OV-3 ovarian
[42] = test system: NCI-H23 lung
[43] = test system: A498 renal
[44] = test system: SN12C renal
[45] = test system: XF 498 CNS
[46] = test system: A549 NSCLC
[47] = test system: HCT-116 colon
[48] = test system: IGROV1 ovarian
[49] = test system: COLO 205 colon
[50] = test system: EKVX NSCLC
[51] = test system: OVCAR-3 ovarian
[52] = test system: HCT-15 colon
[53] = test system: SR leukemia
[54] = test system: ACHN renal
[55] = test system: KM20L2 colon

## O=C1OC(O)c2cc3c(cc21)OCO3 (centres undefined)
[1]
  TGI: > 100 µM
[2]
  TGI: > 100 µM
[3]
  TGI: > 100 µM
[4]
  TGI: > 100 µM
[5]
  TGI: > 100 µM
[6]
  TGI: > 100 µM
[7]
  TGI: > 100 µM
[8]
  TGI: > 100 µM
[9]
  TGI: > 100 µM
[10]
  TGI: > 100 µM
[11]
  TGI: > 100 µM
[12]
  TGI: > 100 µM
[13]
  TGI: > 100 µM
[14]
  TGI: > 100 µM
[15]
  TGI: > 100 µM
[16]
  TGI: > 100 µM
[17]
  TGI: > 100 µM
[18]
  TGI: > 100 µM
[19]
  TGI: > 100 µM
[20]
  TGI: > 100 µM
[21]
  TGI: > 100 µM
[22]
  TGI: > 100 µM
[23]
  TGI: > 100 µM
[24]
  TGI: > 100 µM
[25]
  TGI: > 100 µM
[26]
  TGI: > 100 µM
[27]
  TGI: > 100 µM
[28]
  TGI: > 100 µM
[29]
  TGI: > 100 µM
[30]
  TGI: > 100 µM
[31]
  TGI: > 100 µM
[32]
  TGI: > 100 µM
[33]
  TGI: > 100 µM
[34]
  TGI: > 100 µM
[35]
  TGI: > 100 µM
[36]
  TGI: > 100 µM
[37]
  TGI: > 100 µM
[38]
  TGI: > 100 µM
[39]
  TGI: > 100 µM
[40]
  TGI: > 100 µM
[41]
  TGI: > 100 µM
[42]
  TGI: > 100 µM
[43]
  TGI: > 100 µM
[44]
  TGI: > 100 µM
[45]
  TGI: > 100 µM
[46]
  TGI: > 100 µM
[47]
  TGI: > 100 µM
[48]
  TGI: > 100 µM
[49]
  TGI: > 100 µM
[50]
  TGI: > 100 µM
[51]
  TGI: > 100 µM
[52]
  TGI: > 100 µM

## CC(C)=[CH][Sb]([Br])([CH]=C(C)C)([CH]=C(C)C)[c]1ccccc1
[2]
  GI50: 17.3 µM
  TGI: > 100 µM
[3]
  GI50: 20.3 µM
  TGI: > 100 µM
[53]
  GI50: 18.7 µM
  TGI: > 100 µM
[5]
  GI50: 29.6 µM
  TGI: > 100 µM
[6]
  GI50: 23.2 µM
  TGI: > 100 µM
[7]
  GI50: 16.3 µM
  TGI: 74.2 µM
[8]
  GI50: 2.12 µM
  TGI: 15.7 µM
[9]
  GI50: 23.9 µM
  TGI: > 100 µM
[10]
  GI50: 8.95 µM
  TGI: 79 µM
[54]
  GI50: 36.9 µM
  TGI: > 100 µM
[11]
  GI50: 21.6 µM
  TGI: > 100 µM
[12]
  GI50: 6.74 µM
  TGI: > 100 µM
[13]
  GI50: 6.14 µM
  TGI: > 100 µM
[14]
  GI50: 43.9 µM
  TGI: > 100 µM
[15]
  GI50: 35.4 µM
  TGI: > 100 µM
[16]
  GI50: 3.91 µM
  TGI: 31 µM
[17]
  GI50: 43.7 µM
  TGI: > 100 µM
[18]
  GI50: 3.32 µM
  TGI: 13.9 µM
[19]
  GI50: 13.1 µM
  TGI: 46.3 µM
[20]
  GI50: 4.27 µM
  TGI: 21.1 µM
[21]
  GI50: 32.6 µM
  TGI: > 100 µM
[22]
  GI50: 27.2 µM
  TGI: > 100 µM
[23]
  GI50: > 100 µM
  TGI: > 100 µM
[25]
  GI50: 3.71 µM
  TGI: 15.6 µM
[26]
  GI50: 20.6 µM
  TGI: 82.4 µM
[27]
  GI50: 6.35 µM
  TGI: > 100 µM
[55]
  GI50: 15.9 µM
  TGI: > 100 µM
[29]
  GI50: 20.6 µM
  TGI: > 100 µM
[30]
  GI50: 11.4 µM
  TGI: 57.5 µM
[31]
  GI50: 26 µM
  TGI: 86.7 µM
[32]
  GI50: 34 µM
  TGI: > 100 µM
[33]
  GI50: 11 µM
  TGI: 23 µM
[34]
  GI50: 6.07 µM
  TGI: > 100 µM
[35]
  GI50: 12.8 µM
  TGI: 46.6 µM
[36]
  GI50: 34.9 µM
  TGI: > 100 µM
[37]
  GI50: 49.3 µM
  TGI: > 100 µM
[38]
  GI50: 16 µM
  TGI: 97.2 µM
[39]
  GI50: 20.2 µM
  TGI: 90.1 µM
[40]
  GI50: 14.5 µM
  TGI: 58.2 µM
[41]
  GI50: 23 µM
  TGI: 74.6 µM
[42]
  GI50: 14.4 µM
  TGI: 45.1 µM
[43]
  GI50: 73 µM
  TGI: > 100 µM
[44]
  GI50: 25.4 µM
  TGI: > 100 µM
[45]
  GI50: 24.3 µM
  TGI: > 100 µM
[46]
  GI50: 16.6 µM
  TGI: > 100 µM
[47]
  GI50: 13 µM
  TGI: 47.2 µM
[48]
  GI50: 16.9 µM
  TGI: > 100 µM
[49]
  GI50: 4.52 µM
  TGI: 19.2 µM
[50]
  GI50: 3.95 µM
  TGI: > 100 µM
[51]
  GI50: 4.32 µM
  TGI: 67.3 µM
[52]
  GI50: > 100 µM
  TGI: > 100 µM
